SMILES strings stand for the structures. A value given as a limit tells only on which side of the number the result lay.

GLP-1R, sequence (P43220 24-463): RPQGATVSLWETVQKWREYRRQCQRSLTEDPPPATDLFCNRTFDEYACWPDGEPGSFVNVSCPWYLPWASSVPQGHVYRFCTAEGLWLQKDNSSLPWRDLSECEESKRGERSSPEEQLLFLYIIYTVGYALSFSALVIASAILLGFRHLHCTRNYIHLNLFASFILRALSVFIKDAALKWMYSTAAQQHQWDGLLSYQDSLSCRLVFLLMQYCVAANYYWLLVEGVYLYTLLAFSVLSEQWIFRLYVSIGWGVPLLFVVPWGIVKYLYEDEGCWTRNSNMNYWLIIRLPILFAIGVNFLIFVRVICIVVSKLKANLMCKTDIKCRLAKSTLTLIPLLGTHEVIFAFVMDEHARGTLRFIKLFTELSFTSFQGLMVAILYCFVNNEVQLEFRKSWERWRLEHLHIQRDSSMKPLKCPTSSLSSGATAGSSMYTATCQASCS

The test addresses GLP-1R (Homo sapiens, UniProt P43220). Briefly: In vitro activity assay (cAMP HTRF, HEK293-CRE-luc-GLP-1R cells). Type of test: cell-based. On the set-up: expressed in transfected cells; host or cells: HEK293 (HEK293-CRE-luc-GLP-1R). To be noted: cAMP HTRF 665 nm/620 nm, 1 h incubation. On the procedure: HEK293-CRE-luc-GLP-1R cells were seeded into a 384-well cell culture plate (Greiner #781946) at a certain cell density (5 µL/well). 5 µl/well of 2× working solution was added to the 384-well microplate. The microplate was sealed with parafilm and incubated in a 37°C 5% CO2 incubator (Thermo) for 1 h. Subsequently, the detection was performed using the cAMP-GS HIRANGE KIT (PerkinElmer, 62AM6PEB), and detection reagents were prepared according to the kit instruction manual. After the incubation, the detection reagents were added to the 384-well microplate, and the microplate was incubated for 1 h at room temperature in the dark. HTRF signals at 665 nm and 620 nm were then measured using a multimode microplate reader. Data were exported from the microplate reader in Excel format. GraphPad Prism was opened. The logarithm of the sample concentration was calculated. Using the logarithm of concentration as the x-axis and the 665 nm/620 nm ratio as the y-axis, four-parameter logistic fitting was performed to obtain the EC50 value of the curve. Table 1: EC50 of compounds against GLP-1
In general terms: In TR-FRET formats the signal depends on donor and acceptor labels being close together.
Turning to `Cc1cc(-n2nc3c(c2-n2ccn(-c4ccc5c(c4F)N(C)C(=O)C54CCOCC4)c2=O)[C@H](C)N(C(=O)c2cc4cc([C@H]5CCOC(C)(C)C5)ccc4n2[C@@]2(c4noc(=O)[nH]4)C[C@@H]2C)CC3)cc(C)c1F` [Compound 7], the EC50 – broadly, the concentration at which the effect is half-maximal – is < 1 nM.

In the case of `[2H]C([2H])([2H])N1C(=O)C2(CCOCC2)c2ccc(-n3ccn(-c4c5c(nn4-c4ccc(F)c(C(=C)F)c4)CCN(C(=O)c4cc6cc([C@H]7CCOC(C)(C)C7)ccc6n4[C@@]4(c6noc(=O)[nH]6)C[C@@H]4C)[C@H]5C)c3=O)cc21` [Compound 53], the concentration giving a half-maximal response (EC50) is < 1 nM.

Regarding `C[C@H]1c2c(nn(-c3ccc(F)c(C4CC4)c3)c2-n2ccn(-c3ccc4c(c3F)N(C)C(=O)C43CCOCC3)c2=O)CCN1C(=O)c1cc2cc([C@H]3CCOC(C)(C)C3)ccc2n1[C@@]1(c2noc(=O)[nH]2)C[C@@H]1C` [Compound 42], the EC50 is < 1 nM.

In the case of `Cc1cc(-n2nc3c(c2-n2ccn(-c4ccc5c(c4)N(C)C(=O)C54CCN(C(=O)C5COC5)CC4)c2=O)[C@H](C)N(C(=O)c2cc4cc([C@H]5CCOC(C)(C)C5)ccc4n2[C@@]2(c4noc(=O)[nH]4)C[C@@H]2C)CC3)cc(C)c1F` [Compound 18], the half-maximal effective concentration (EC50) was < 1 nM.

As to `[2H]C([2H])([2H])N1C(=O)C2(CCOCC2)c2ccc(-n3ccn(-c4c5c(nn4-c4ccc(F)c(C6(F)CC6)c4)CCN(C(=O)c4cc6cc([C@H]7CCOC(C)(C)C7)ccc6n4[C@@]4(c6noc(=O)[nH]6)C[C@@H]4C)[C@H]5C)c3=O)cc21` [Compound 44], the concentration for a half-maximal effect (EC50) is < 1 nM.

For `Cc1cc(-n2nc3c(c2-n2ccn(-c4ccc5c(c4)N(C)C(=O)C54CCN(C(=O)C5(CF)CC5)CC4)c2=O)[C@H](C)N(C(=O)c2cc4cc([C@H]5CCOC(C)(C)C5)ccc4n2[C@@]2(c4noc(=O)[nH]4)C[C@@H]2C)CC3)cc(C)c1F` [Compound 35], the EC50 was < 1 nM.

With `[2H]C([2H])([2H])N1C(=O)C2(CCOCC2)c2ccc(-n3ccn(-c4c5c(nn4-c4cc(C)c(F)c(C)c4)CCN(C(=O)c4cc6cc([C@H]7CCOC(C)(C)C7)ccc6n4[C@@]4(c6noc(=O)[nH]6)C[C@@H]4C)[C@H]5C)c3=O)c(F)c21` [Compound 8], the EC50 was < 1 nM.

Consider `[2H]C([2H])([2H])N1C(=O)C2(CCN(C(=O)C3CC3F)CC2)c2ccc(-n3ccn(-c4c5c(nn4-c4cc(C)c(F)c(C)c4)CCN(C(=O)c4cc6cc(C7CCOC(C)(C)C7)ccc6n4C4(c6noc(=O)[nH]6)CC4C)C5C)c3=O)cc21` (stereo not drawn) [Compound 40], for which the EC50 is < 1 nM.

In the case of `Cc1cc(-n2nc3c(c2-n2ccn(-c4ccc5c(c4)N(C)C(=O)C54CCOCC4)c2=O)[C@H](C)N(C(=O)c2cc4cc(C5CCOCC5)ccc4n2[C@@]2(c4noc(=O)[nH]4)C[C@@H]2C)CC3)cc(C)c1F` [Compound 47], the concentration giving a half-maximal response (EC50) is < 1 nM.

`C=C(F)c1cc(-n2nc3c(c2-n2ccn(-c4ccc5c(c4)N(C)C(=O)C54CCOCC4)c2=O)[C@H](C)N(C(=O)c2cc4cc([C@H]5CCOC(C)(C)C5)ccc4n2[C@@]2(c4noc(=O)[nH]4)C[C@@H]2C)CC3)ccc1F` [Compound 52]: the concentration for a half-maximal effect (EC50) was < 1 nM.

As for `Cc1cc(-n2nc3c(c2-n2ccn(-c4ccc5c(c4)N(C)C(=O)C54CCN(C(=O)c5cnn(CC6CC6)c5)CC4)c2=O)[C@H](C)N(C(=O)c2cc4cc([C@H]5CCOC(C)(C)C5)ccc4n2[C@@]2(c4noc(=O)[nH]4)C[C@@H]2C)CC3)cc(C)c1F` [Compound 32], the concentration giving a half-maximal response (EC50) is < 1 nM.

Turning to `COP(=O)(OC)N1CCC2(CC1)C(=O)N(C)c1cc(-n3ccn(-c4c5c(nn4-c4cc(C)c(F)c(C)c4)CCN(C(=O)c4cc6cc([C@H]7CCOC(C)(C)C7)ccc6n4[C@@]4(c6noc(=O)[nH]6)C[C@@H]4C)[C@H]5C)c3=O)ccc12` [Compound 33], the EC50 was < 1 nM.

For `[2H]C([2H])([2H])N1C(=O)C2(CCN(C(=O)C3C4COCC43)CC2)c2ccc(-n3ccn(-c4c5c(nn4-c4cc(C)c(F)c(C)c4)CCN(C(=O)c4cc6cc([C@H]7CCOC(C)(C)C7)ccc6n4[C@@]4(c6noc(=O)[nH]6)C[C@@H]4C)[C@H]5C)c3=O)cc21` (stereo partly drawn) [Compound 39], the EC50 is < 1 nM.

For the compound `Cc1cc(-n2nc3c(c2-n2ccn(-c4ccc5c(c4)N(C)C(=O)C54CCN(C(=O)N[C@@H]5C[C@@H]5F)CC4)c2=O)[C@H](C)N(C(=O)c2cc4cc([C@H]5CCOC(C)(C)C5)ccc4n2[C@@]2(c4noc(=O)[nH]4)C[C@@H]2C)CC3)cc(C)c1F` [Compound 17], the half-maximal effective concentration (EC50) is < 1 nM.

As to `Cc1cc(-n2nc3c(c2-n2ccn(-c4ccc5c(c4)N(C)C(=O)C54CCN(S(=O)(=O)C5CC5)CC4)c2=O)[C@H](C)N(C(=O)c2cc4cc([C@H]5CCOC(C)(C)C5)ccc4n2[C@@]2(c4noc(=O)[nH]4)C[C@@H]2C)CC3)cc(C)c1F` [Compound 20], the EC50 was < 1 nM.

As to `Cc1cc(-n2nc3c(c2-n2ccn(-c4ccc5c(c4)N(C)C(=O)C54CCN(C(=O)COCC5CC5(F)F)CC4)c2=O)[C@H](C)N(C(=O)c2cc4cc([C@H]5CCOC(C)(C)C5)ccc4n2[C@@]2(c4noc(=O)[nH]4)C[C@@H]2C)CC3)cc(C)c1F` (stereo partly drawn) [Compound 37], the EC50 was < 1 nM.

For `[2H]C([2H])([2H])N1C(=O)C2(CCOCC2)c2ccc(-n3ccn(-c4c5c(nn4-c4ccc(F)c(C6CC6)c4)CCN(C(=O)c4cc6cc([C@H]7CCOC(C)(C)C7)ccc6n4[C@@]4(c6noc(=O)[nH]6)C[C@@H]4C)[C@H]5C)c3=O)c(F)c21` [Compound 43], the EC50 was < 1 nM.

On to `Cc1cc(-n2nc3c(c2-n2ccn(-c4ccc5c(c4)N(C)C(=O)C54CCN(C(=O)C5(c6ccccn6)CC5)CC4)c2=O)[C@H](C)N(C(=O)c2cc4cc([C@H]5CCOC(C)(C)C5)ccc4n2[C@@]2(c4noc(=O)[nH]4)C[C@@H]2C)CC3)cc(C)c1F` [Compound 23], for which the EC50 is < 1 nM.

As for `Cc1cc(-n2nc3c(c2-n2ccn(-c4ccc5c(c4)N(C)C(=O)C54CCN(C(=O)[C@@H]5C[C@H]5F)CC4)c2=O)[C@H](C)N(C(=O)c2cc4cc([C@H]5CCOC(C)(C)C5)ccc4n2[C@@]2(c4noc(=O)[nH]4)C[C@@H]2C)CC3)cc(C)c1F` [Compound 13], the 50% effective concentration (EC50) was < 1 nM.

Regarding `Cc1cc(-n2nc3c(c2-n2ccn(-c4ccc5c(c4F)N(C)C(=O)C54CCOCC4)c2=O)[C@H](C)N(C(=O)c2cc4cc(C5CCOCC5)ccc4n2[C@@]2(c4noc(=O)[nH]4)C[C@@H]2C)CC3)cc(C)c1F` [Compound 56], the EC50 is < 1 nM.

Turning to `Cc1cc(-n2nc3c(c2-n2ccn(-c4ccc5c(c4)N(C)C(=O)C54CCN(C(=O)C5CCN(C(=O)C6CC6)CC5)CC4)c2=O)[C@H](C)N(C(=O)c2cc4cc([C@H]5CCOC(C)(C)C5)ccc4n2[C@@]2(c4noc(=O)[nH]4)C[C@@H]2C)CC3)cc(C)c1F` [Compound 29], the EC50 was < 1 nM.

These data come from patent EP4810500A1, “IMIDAZOL-2-ONE DERIVATIVE AND USE THEREOF IN MEDICINE” (Haisco Pharmaceutical Group Co., Ltd., priority 2023, dated 2025).
